Experimental data published in ChEMBL document CHEMBL1201862, “PubChem BioAssay data set” (2004).
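Cultured in 96-well plates, cells were exposed to test compound for 48 hours across five concentrations. At the GI50, growth is halved.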 Active and inactive are the calls of the source. Cut-off read from the data, not from the text of the source: active = GI50 up to about 1.1 µM and inactive = higher.

Assays:
Assay in all cases: growth of human tumour cells (NCI), 48 h
786-0 = system: 786-0
A498 = system: A498
A549 = system: A549
ACHN = system: ACHN
BT-549 = system: BT-549
CAKI-1 = system: CAKI-1
CCRF-CEM = system: CCRF-CEM
COLO 205 = system: COLO 205
DU-145 = system: DU-145
EKVX = system: EKVX
HCC 2998 = system: HCC 2998
HCT-116 = system: HCT-116
HCT-15 = system: HCT-15
HL-60 = system: HL-60
HOP-62 = system: HOP-62
HOP-92 = system: HOP-92
HT-29 = system: HT-29
Hs-578T = system: Hs-578T
IGROV-1 = system: IGROV-1
KM12 = system: KM12
LOX IMVI = system: LOX IMVI
M14 = system: M14
MCF7 = system: MCF7
MDA-MB-231 = system: MDA-MB-231
MDA-MB-435 = system: MDA-MB-435
MDA-N = system: MDA-N
MOLT-4 = system: MOLT-4
Malme-3M = system: Malme-3M
NCI-H226 = system: NCI-H226
NCI-H23 = system: NCI-H23
NCI-H460 = system: NCI-H460
NCI-H522 = system: NCI-H522
NCI/ADR-RES = system: NCI/ADR-RES
OVCAR-3 = system: OVCAR-3
OVCAR-4 = system: OVCAR-4
OVCAR-5 = system: OVCAR-5
OVCAR-8 = system: OVCAR-8
PC-3 = system: PC-3
RPMI-8226 = system: RPMI-8226
RXF 393 = system: RXF 393
SF-268 = system: SF-268
SF-295 = system: SF-295
SF-539 = system: SF-539
SK-MEL-28 = system: SK-MEL-28
SK-MEL-2 = system: SK-MEL-2
SK-OV-3 = system: SK-OV-3
SN12C = system: SN12C
SNB-19 = system: SNB-19
SNB-75 = system: SNB-75
SW-620 = system: SW-620
T47D = system: T47D
TK-10 = system: TK-10
U-251 = system: U-251
UACC-257 = system: UACC-257
UACC-62 = system: UACC-62
UO-31 = system: UO-31
K562 = system: K562
SK-MEL-5 = system: SK-MEL-5
SR = system: SR

Measured: GI50

CCOC(=O)/C=C\c1c(Cl)n(-c2ccccc2)c(=O)n(-c2ccccc2)c1=O
inactive: 786-0 20.3 µM | A498 21.3 µM | A549 25.1 µM | ACHN 20.7 µM | BT-549 20.2 µM | CAKI-1 19.5 µM | CCRF-CEM 21.9 µM | COLO 205 18.5 µM | DU-145 18.8 µM | EKVX 21 µM | HCC 2998 18.5 µM | HCT-116 23.8 µM | HL-60 4.63 µM | HOP-62 20.8 µM | HOP-92 15.8 µM | HT-29 19 µM | Hs-578T 27.3 µM | IGROV-1 17.6 µM | KM12 19.1 µM | LOX IMVI 22.6 µM | M14 18.7 µM | MCF7 22.6 µM | MDA-MB-231 21.2 µM | MDA-MB-435 22.1 µM | MDA-N 17 µM | MOLT-4 38.5 µM | Malme-3M 24.5 µM | NCI-H226 20.7 µM | NCI-H23 21.7 µM | NCI-H460 18 µM | NCI-H522 18.1 µM | NCI/ADR-RES 26.5 µM | OVCAR-3 19.3 µM | OVCAR-4 30 µM | OVCAR-5 20.6 µM | OVCAR-8 17.4 µM | PC-3 18.7 µM | RPMI-8226 > 10 µM | RXF 393 17.9 µM | SF-268 20.7 µM | SF-295 21.9 µM | SF-539 17.2 µM | SK-MEL-28 18.9 µM | SK-MEL-2 17.7 µM | SK-OV-3 22.2 µM | SN12C 19.6 µM | SNB-19 16 µM | SNB-75 14.9 µM | SW-620 23.8 µM | T47D 20.2 µM | TK-10 18.1 µM | U-251 32 µM | UACC-257 18.6 µM | UACC-62 18.3 µM | UO-31 18.8 µM
19.8 µM: HCT-15

Cc1cccc(NS(=O)(=O)c2ccc3c(c2)OCCOCCOCCOCCO3)c1
> 100 µM: HCT-15
inactive: 786-0 > 100 µM | A498 > 100 µM | A549 > 100 µM | ACHN > 100 µM | BT-549 > 100 µM | CAKI-1 > 100 µM | CCRF-CEM > 100 µM | COLO 205 > 100 µM | DU-145 > 100 µM | EKVX > 100 µM | HCC 2998 > 100 µM | HCT-116 > 100 µM | HL-60 > 100 µM | HOP-62 > 100 µM | HT-29 > 100 µM | Hs-578T > 100 µM | IGROV-1 > 100 µM | K562 > 100 µM | KM12 > 100 µM | M14 > 100 µM | MCF7 > 100 µM | MDA-MB-231 > 100 µM | MDA-MB-435 > 100 µM | MDA-N > 100 µM | MOLT-4 63 µM | Malme-3M > 100 µM | NCI-H226 > 100 µM | NCI-H23 > 100 µM | NCI-H460 > 100 µM | NCI-H522 16.1 µM | OVCAR-8 > 100 µM | PC-3 > 100 µM | RPMI-8226 > 100 µM | SF-268 > 100 µM | SF-295 > 100 µM | SF-539 > 100 µM | SK-MEL-28 > 100 µM | SK-MEL-5 > 100 µM | SK-OV-3 > 100 µM | SN12C > 100 µM | SNB-19 > 100 µM | SNB-75 51.5 µM | SR 53 µM | SW-620 > 100 µM | T47D 43.5 µM | TK-10 > 100 µM | UACC-257 > 100 µM | UACC-62 > 100 µM | UO-31 > 100 µM
